Reference: patent US12570642B2, “GLP-IR modulating compounds” (Gilead Sciences, Inc., priority 2021, dated 2026)

Molecular target: GLP-1R (Homo sapiens, UniProt P43220)
Assay: GLP-1R Activation - cAMP Assay
Type: cell-based
Settings: cAMP increase in CHO cells stably expressing GLP-1R; each compound run on one of the two cAMP assays (Assay 1 or Assay 2, not specified)
Summary of the method: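 CHO cells stably expressing GLP-1R, plated at 1,000 cells/well overnight, then equilibrated 1 h in HBSS with 20 mM Hepes and 0.1% BSA. Agonist added as 10-point dose response for 30 min at 37 °C. cAMP measured by HTRF (Cisbio Gs Dynamic kit); EC50 from sigmoidal fit.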

Sequence of GLP-1R (P43220 24-463): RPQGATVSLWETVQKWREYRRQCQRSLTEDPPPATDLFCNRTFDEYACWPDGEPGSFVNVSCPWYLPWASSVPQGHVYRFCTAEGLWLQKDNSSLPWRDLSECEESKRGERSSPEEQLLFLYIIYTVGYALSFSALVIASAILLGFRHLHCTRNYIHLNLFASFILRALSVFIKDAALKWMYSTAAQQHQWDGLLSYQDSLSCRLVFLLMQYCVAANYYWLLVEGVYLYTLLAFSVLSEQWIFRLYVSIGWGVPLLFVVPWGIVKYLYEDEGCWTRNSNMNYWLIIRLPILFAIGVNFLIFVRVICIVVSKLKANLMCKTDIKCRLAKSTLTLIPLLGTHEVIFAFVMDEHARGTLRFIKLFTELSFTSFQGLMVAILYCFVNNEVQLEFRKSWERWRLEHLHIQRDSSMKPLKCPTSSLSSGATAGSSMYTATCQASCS

Compound	EC50 [pM]
COCCn1c(Cc2cc(F)c(-c3cccc(OCc4ccc(-c5cnn(C(F)F)c5)nc4)n3)cc2F)nc2ccc(C(=O)O)cc21 [Example 109, 2-(4-(6-((6-(1-(difluoromethyl)-1H-pyrazol-4-yl)pyridin-3-yl)methoxy)pyridin-2-yl)-2,5-difluorobenzyl)-1-(2-methoxyethyl)-1H-benzo[d]imidazole-6-carboxylic Acid]	2510
N#Cc1ccc(COc2cccc(-c3cc(F)c(Cc4nc5ccc(C(=O)O)cc5n4[C@@H]4COC[C@@H]4C(F)F)cc3F)n2)c(F)c1 (racemic) [Example 267, 2-(4-(6-((4-cyano-2-fluorobenzyl)oxy)pyridin-2-yl)-2,5-difluorobenzyl)-1-((4R)-4-(difluoromethyl)tetrahydrofuran-3-yl)-1H-benzo[d]imidazole-6-carboxylic acid]	55
COCCn1c(Cc2c(F)cc(-c3cccc(OCc4ccc(C#N)cc4)n3)c(F)c2F)nc2ccc(C(=O)O)cc21 [Example 281, 2-(4-(6-((4-cyanobenzyl)oxy)pyridin-2-yl)-2,3,6-trifluorobenzyl)-1-(2-methoxyethyl)-1H-benzo[d]imidazole-6-carboxylic acid]	655
COCCn1c(Cc2cc(F)c(-c3cccc(OCc4ccc(-n5ccnc5)nc4)n3)cc2F)nc2ccc(C(=O)O)cc21 [Example 95, 2-(4-(6-((6-(1H-imidazol-1-yl)pyridin-3-yl)methoxy)pyridin-2-yl)-2,5-difluorobenzyl)-1-(2-methoxyethyl)-1H-benzo[d]imidazole-6-carboxylic Acid]	970
CC1(C)COCC1n1c(Cc2cc(F)c(-c3cccc(OCc4ccc(Cl)cc4)n3)cc2F)nc2ccc(C(=O)O)cc21 (stereo not shown) [Example 387, 2-(4-(6-((4-chlorobenzyl)oxy)pyridin-2-yl)-2,5-difluorobenzyl)-1-(4,4-dimethyltetrahydrofuran-3-yl)-1H-benzo[d]imidazole-6-carboxylic acid]	43
CC1(C)COC[C@H]1n1c(Cc2cc(F)c(-c3cccc(OCc4ccc(C#N)cc4)n3)cc2F)nc2cc(O)c(C(=O)O)cc21 [Example 401, (S)-2-(4-(6-((4-cyanobenzyl)oxy)pyridin-2-yl)-2,5-difluorobenzyl)-1-(4,4-dimethyltetrahydrofuran-3-yl)-5-hydroxy-1H-benzo[d]imidazole-6-carboxylic acid]	247
CC1(C)COC[C@H]1n1c(Cc2c(F)cc(-c3ccc(F)c(OCc4ccc(C#N)cc4F)n3)c(F)c2F)nc2c(F)cc(C(=O)O)cc21 [Example 479, (S)-2-(4-(6-((4-cyano-2-fluorobenzyl)oxy)-5-fluoropyridin-2-yl)-2,3,6-trifluorobenzyl)-1-(4,4-dimethyltetrahydrofuran-3-yl)-4-fluoro-1H-benzo[d]imidazole-6-carboxylic acid]	249
COCCn1c(Cc2cc(F)c(-c3cc(Cl)cc(OCc4ccc(C#N)cc4F)n3)cc2F)nc2ccc(C(=O)O)cc21 [Example 42, 2-(4-(4-chloro-6-((4-cyano-2-fluorobenzyl)oxy)pyridin-2-yl)-2,5-difluorobenzyl)-1-(2-methoxyethyl)-1H-benzo[d]imidazole-6-carboxylic Acid]	4250
CC1(C)COC[C@@H]1n1c(Cc2cc(F)c(-c3cccc(OCc4ccc(C#N)cc4F)n3)cc2F)nc2c(F)cc(C(=O)O)cc21 [Example 11, (R)-2-(4-(6-((4-cyano-2-fluorobenzyl)oxy)pyridin-2-yl)-2,5-difluorobenzyl)-1-(4,4-dimethyltetrahydrofuran-3-yl)-4-fluoro-1H-benzo[d]imidazole-6-carboxylic Acid]	260
CC1(C)COC[C@@H]1n1c(Cc2cc(F)c(-c3cccc(OCc4ncc(Cl)cc4F)n3)cc2F)nc2ccc(C(=O)O)cc21 (single isomer, unassigned) [Example 289B]	931
Cc1cc(Cc2nc3c(F)cc(C(=O)O)cc3n2C[C@@H]2CCO2)c(Cl)cc1-c1cccc(OCc2ccc(C#N)cc2F)n1 [Example 143, (S)-2-(2-chloro-4-(6-((4-cyano-2-fluorobenzyl)oxy)pyridin-2-yl)-5-methylbenzyl)-4-fluoro-1-(oxetan-2-ylmethyl)-1H-benzo[d]imidazole-6-carboxylic Acid]	614
CC1(C)COCC1n1c(Cc2cc(F)c(-c3cccc(OCc4cnc(-n5ccnn5)cc4Cl)n3)cc2F)nc2c(F)cc(C(=O)O)cc21 (stereo not shown) [Example 173, 2-(4-(6-((4-chloro-6-(1H-1,2,3-triazol-1-yl)pyridin-3-yl)methoxy)pyridin-2-yl)-2,5-difluorobenzyl)-1-(4,4-dimethyltetrahydrofuran-3-yl)-4-fluoro-1H-benzo[d]imidazole-6-carboxylic Acid]	18
COC[C@H]1COC[C@H]1n1c(Cc2cc(F)c(-c3ccc(F)c(OCc4ccc(Cl)cc4F)n3)cc2F)nc2ccc(C(=O)O)cc21 [Example 543, 2-(4-(6-((4-chloro-2-fluorobenzyl)oxy)-5-fluoropyridin-2-yl)-2,5-difluorobenzyl)-1-((3S,4S)-4-(methoxymethyl)tetrahydrofuran-3-yl)-1H-benzo[d]imidazole-6-carboxylic acid]	38
CC1(C)COC[C@@H]1n1c(Cc2cc(F)c(-c3cccc(OCc4ccc(C#N)cc4F)n3)cc2F)nc2ccc(C(=O)O)cc21 [Example 59]	320
COCCn1c(Cc2c(F)cc(-c3ccc(F)c(OCc4cnc(-n5ccnn5)cc4Cl)n3)c(F)c2F)nc2ccc(C(=O)O)cc21 [Example 392, 2-(4-(6-((4-chloro-6-(1H-1,2,3-triazol-1-yl)pyridin-3-yl)methoxy)-5-fluoropyridin-2-yl)-2,3,6-trifluorobenzyl)-1-(2-methoxyethyl)-1H-benzo[d]imidazole-6-carboxylic acid]	36
CC1(C)COC[C@H]1n1c(Cc2c(F)cc(-c3cccc(OCc4ccc(Cl)cc4)n3)c(F)c2F)nc2ccc(C(=O)O)cc21 [Example 246, (S)-2-(4-(6-((4-chlorobenzyl)oxy)pyridin-2-yl)-2,3,6-trifluorobenzyl)-1-(4,4-dimethyltetrahydrofuran-3-yl)-1H-benzo[d]imidazole-6-carboxylic acid]	65
Cn1c(=O)sc2cc(COc3cccc(-c4cc(F)c(Cc5nc6ccc(C(=O)O)cc6n5C[C@@H]5CCO5)cc4F)n3)ccc21 [Example 531, (S)-2-(2,5-difluoro-4-(6-((3-methyl-2-oxo-2,3-dihydrobenzo[d]thiazol-6-yl)methoxy)pyridin-2-yl)benzyl)-1-(oxetan-2-ylmethyl)-1H-benzo[d]imidazole-6-carboxylic acid]	396
CC1(C)COC[C@H]1n1c(Cc2c(F)cc(-c3ccnc(OCc4ccc(F)cc4)n3)c(F)c2F)nc2ccc(C(=O)O)cc21 [Example 574, (S)-1-(4,4-dimethyltetrahydrofuran-3-yl)-2-(2,3,6-trifluoro-4-(2-((4-fluorobenzyl)oxy)pyrimidin-4-yl)benzyl)-1H-benzo[d]imidazole-6-carboxylic acid]	457
COc1cc(C#N)ccc1COc1cccc(-c2cc(F)c(Cc3nc4ccc(C(=O)O)cc4n3[C@@H]3COCC3(C)C)cc2F)n1 [Example 461, (S)-2-(4-(6-((4-cyano-2-methoxybenzyl)oxy)pyridin-2-yl)-2,5-difluorobenzyl)-1-(4,4-dimethyltetrahydrofuran-3-yl)-1H-benzo[d]imidazole-6-carboxylic acid]	67
CO[C@H]1CCOC[C@H]1n1c(Cc2cc(F)c(-c3cccc(OCc4ccc(C#N)cc4F)n3)cc2F)nc2ccc(C(=O)O)cc21 [Example 70, 2-(4-(6-((4-cyano-2-fluorobenzyl)oxy)pyridin-2-yl)-2,5-difluorobenzyl)-1-((3R,4S)-4-methoxytetrahydro-2H-pyran-3-yl)-1H-benzo[d]imidazole-6-carboxylic Acid]	260
CC1(C)COC[C@H]1n1c(Cc2cc(F)c(-c3cccc(OCc4ccc(F)cc4)n3)cc2F)nc2ccc(C(=O)O)cc21 [Example 360, (S)-2-(2,5-difluoro-4-(6-((4-fluorobenzyl)oxy)pyridin-2-yl)benzyl)-1-(4,4-dimethyltetrahydrofuran-3-yl)-1H-benzo[d]imidazole-6-carboxylic acid]	79
Cn1ncc(-c2ccc(COc3cccc(-c4cc(F)c(Cc5nc6ccc(C(=O)O)cc6n5[C@@H]5COCC5(C)C)cc4F)n3)c(F)c2)n1 [Example 553, (S)-2-(2,5-difluoro-4-(6-((2-fluoro-4-(2-methyl-2H-1,2,3-triazol-4-yl)benzyl)oxy)pyridin-2-yl)benzyl)-1-(4,4-dimethyltetrahydrofuran-3-yl)-1H-benzo[d]imidazole-6-carboxylic acid]	132
Cc1ccc(COc2cccc(-c3cc(F)c(Cc4nc5ccc(C(=O)O)cc5n4[C@@H]4COCC4(C)C)cc3F)n2)c(F)n1 [Example 252, (S)-2-(2,5-difluoro-4-(6-((2-fluoro-6-methylpyridin-3-yl)methoxy)pyridin-2-yl)benzyl)-1-(4,4-dimethyltetrahydrofuran-3-yl)-1H-benzo[d]imidazole-6-carboxylic acid]	59
COC[C@H]1COC[C@H]1n1c(Cc2cc(F)c(-c3ccc(F)c(OCc4ccc(Cl)cc4)n3)cc2F)nc2ccc(C(=O)O)cc21 [Example 545, 2-(4-(6-((4-chlorobenzyl)oxy)-5-fluoropyridin-2-yl)-2,5-difluorobenzyl)-1-((3S,4S)-4-(methoxymethyl)tetrahydrofuran-3-yl)-1H-benzo[d]imidazole-6-carboxylic acid]	44
CC1(C)COC[C@H]1n1c(Cc2cc(F)c(-c3ccc(F)c(OCc4ccc(C#N)cc4F)n3)cc2F)nc2ccc(C(=O)O)nc21 [Example 428, (S)-2-(4-(6-((4-cyano-2-fluorobenzyl)oxy)-5-fluoropyridin-2-yl)-2,5-difluorobenzyl)-3-(4,4-dimethyltetrahydrofuran-3-yl)-3H-imidazo[4,5-b]pyridine-5-carboxylic acid]	105
